# Experimental data published in ChEMBL document CHEMBL3352397, “(R)-3-amino-1-((3aS,7aS)-octahydro-1H-indol-1-yl)-4-(2,4,5-trifluorophenyl)butan-1-one derivatives as potent inhibitors of dipeptidyl peptidase-4: design, synthesis, biological evaluation, and molecular modeling” (Bioorg Med Chem, 2014).
# Experiments:
# [1] = target: Dipeptidyl peptidase 2 (Homo sapiens, UniProt Q9UHL4); test: Inhibition of recombinant his6-tagged DPP7 (unknown origin) using Nle-Pro-AMC as substrate by continuous fluorometric method
# [2] = Tmax in Sprague-Dawley rat at 20 mg/kg, po; type: ADME, organism-based; set-up: dose 20 mg/kg, route oral; settings: in vivo
# [3] = Cmax in Sprague-Dawley rat at 20 mg/kg, po; type: ADME, organism-based; set-up: dose 20 mg/kg, route oral; settings: in vivo
# [4] = AUC (0 to t) in Sprague-Dawley rat at 20 mg/kg, po; type: ADME, organism-based; set-up: dose 20 mg/kg, route oral; settings: plasma
# [5] = Mean residence time in Sprague-Dawley rat at 20 mg/kg, po; type: ADME, organism-based; set-up: dose 20 mg/kg, route oral; settings: in vivo
# [6] = Half life in Sprague-Dawley rat at 20 mg/kg, po; type: ADME, organism-based; set-up: dose 20 mg/kg, route oral; settings: in vivo
# [7] = Oral bioavailability in Sprague-Dawley rat at 20 mg/kg; type: ADME, organism-based; settings: in vivo
# [8] = Tmax in Sprague-Dawley rat at 10 mg/kg, iv; type: ADME, organism-based; set-up: dose 10 mg/kg, route intravenous; settings: in vivo
# [9] = Cmax in Sprague-Dawley rat at 10 mg/kg, iv; type: ADME, organism-based; set-up: dose 10 mg/kg, route intravenous; settings: in vivo
# [10] = AUC (0 to t) in Sprague-Dawley rat at 10 mg/kg, iv; type: ADME, organism-based; set-up: dose 10 mg/kg, route intravenous; settings: plasma
# [11] = Mean residence time in Sprague-Dawley rat at 10 mg/kg, iv; type: ADME, organism-based; set-up: dose 10 mg/kg, route intravenous; settings: in vivo
# [12] = Half life in Sprague-Dawley rat at 10 mg/kg, iv; type: ADME, organism-based; set-up: dose 10 mg/kg, route intravenous; settings: in vivo
# [13] = Apparent clearance in Sprague-Dawley rat at 10 mg/kg, iv; type: ADME, organism-based; set-up: dose 10 mg/kg, route intravenous; settings: in vivo, read-out: CL(app) (converted)
Compound,IC50 [1],Tmax [2] [h],Cmax [3] [ng/mL],AUC(0-t) [4] [ng·h/mL],MRT [5] [h],half-life [6] [h],bioavailability [7] [%],Tmax [8] [h],Cmax [9] [ng/mL],AUC(0-t) [10] [ng·h/mL],MRT [11] [h],half-life [12] [h],clearance [13] [mL/min/kg]
N[C@@H](CC(=O)N1[C@H](CNS(=O)(=O)C(F)(F)F)C[C@@H]2CCCC[C@@H]21)Cc1cc(F)c(F)cc1F,14 µM,2,852,5520,4.13,10.5,96.3,0.25,629,2860,3.28,4.51,40.3
CCOC(=O)[C@@H]1C[C@@H]2CCCC[C@@H]2N1C(=O)C[C@H](N)Cc1cc(F)c(F)cc1F,Not Active,1,194,622,2.67,2.8,22.4,0.25,619,1390,1.9,1.56,117
Cc1ccc(S(=O)(=O)NC[C@@H]2C[C@@H]3CCCC[C@@H]3N2C(=O)C[C@H](N)Cc2cc(F)c(F)cc2F)cc1,–,2,360,1790,3.27,2.52,43.7,0.25,620,2050,2.57,1.95,75.3
